What was measured:
[1] = molecular target: Neutrophil collagenase (Homo sapiens, UniProt P22894); assay: Inhibition of Matrix metalloprotease-8
[2] = molecular target: Matrix metalloproteinase-9 (Homo sapiens, UniProt P14780); assay: Inhibition of Matrix metalloprotease-9
[3] = molecular target: Stromelysin-1 (Homo sapiens, UniProt P08254); assay: Inhibition of Matrix metalloprotease-3
[4] = molecular target: T1, Interstitial collagenase (Homo sapiens, UniProt P03956); assay: Inhibition of Matrix metalloprotease-1
T1 sequence (P03956 whole entry): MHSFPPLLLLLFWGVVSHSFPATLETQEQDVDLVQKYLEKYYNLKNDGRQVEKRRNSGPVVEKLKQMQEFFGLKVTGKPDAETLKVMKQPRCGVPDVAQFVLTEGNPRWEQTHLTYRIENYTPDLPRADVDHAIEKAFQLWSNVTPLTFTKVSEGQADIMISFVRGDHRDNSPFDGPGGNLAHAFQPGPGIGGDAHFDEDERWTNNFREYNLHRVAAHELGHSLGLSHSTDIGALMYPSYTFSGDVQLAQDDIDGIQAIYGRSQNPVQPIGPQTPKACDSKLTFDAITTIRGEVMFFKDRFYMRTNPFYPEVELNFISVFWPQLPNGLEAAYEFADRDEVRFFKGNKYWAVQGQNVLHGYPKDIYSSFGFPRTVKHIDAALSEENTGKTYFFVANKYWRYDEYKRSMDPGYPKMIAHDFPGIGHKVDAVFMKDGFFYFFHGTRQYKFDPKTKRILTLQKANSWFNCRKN

[5] = molecular target: 72 kDa type IV collagenase (Homo sapiens, UniProt P08253); assay: Inhibition of Matrix metalloprotease-2
Chain of 72 kDa type IV collagenase (P08253 whole entry): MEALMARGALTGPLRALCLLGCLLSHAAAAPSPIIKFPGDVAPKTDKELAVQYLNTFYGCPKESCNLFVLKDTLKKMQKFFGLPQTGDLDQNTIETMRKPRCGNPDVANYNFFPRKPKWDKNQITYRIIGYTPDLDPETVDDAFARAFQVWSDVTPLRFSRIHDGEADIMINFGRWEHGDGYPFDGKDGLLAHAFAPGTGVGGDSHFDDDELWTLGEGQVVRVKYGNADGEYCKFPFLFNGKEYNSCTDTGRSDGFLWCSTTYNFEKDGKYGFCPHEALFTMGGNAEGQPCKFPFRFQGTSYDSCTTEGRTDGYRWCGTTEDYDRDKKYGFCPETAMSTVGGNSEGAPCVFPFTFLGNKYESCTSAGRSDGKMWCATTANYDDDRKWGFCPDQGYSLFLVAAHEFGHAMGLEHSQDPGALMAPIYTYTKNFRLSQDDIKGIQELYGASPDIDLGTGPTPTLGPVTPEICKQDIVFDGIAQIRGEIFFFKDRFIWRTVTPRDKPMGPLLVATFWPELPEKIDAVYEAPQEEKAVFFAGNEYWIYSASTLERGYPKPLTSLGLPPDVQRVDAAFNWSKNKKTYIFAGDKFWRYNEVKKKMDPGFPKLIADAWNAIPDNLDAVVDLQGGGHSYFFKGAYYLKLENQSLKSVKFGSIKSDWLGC

[6] = Inhibitory concentration required against shedding of TNF-alpha from stimulated PBMCs; type: functional
[7] = Inhibitory concentration required against shedding of IL6-R from stimulated PBMCs; type: functional
[8] = test system: Mus musculus; assay: Percent inhibition against B16-F10 mouse melanoma tested in vivo at 30 mg/kg; type: functional
[9] = test system: Rattus norvegicus; assay: Percent inhibition against adjuvant arthritis in rats tested in vivo at 10 mg/kg; type: functional
[10] = Inhibitory concentration required against shedding of TNF RII from stimulated PBMCs; type: functional
[11] = Inhibitory concentration required against shedding of IL-1 RII from stimulated PBMCs; type: functional
[12] = (§1) Inhibitory concentration required against shedding of L-Selectin from stimulated PBMCs; type: functional, Homo sapiens
[13] = test system: Rattus norvegicus; assay: Percent inhibition against adjuvant arthritis in rats tested in vivo at 3 mg/kg; type: functional
[14] = test system: Rattus norvegicus; assay: Plasma level evaluated in the rat after oral dosing of 10 mg/kg; type: ADME, organism-based; design: dose 10 mg/kg, route oral; conditions: in vivo
[15] = as §1; type: functional

Chain of Neutrophil collagenase (P22894 whole entry): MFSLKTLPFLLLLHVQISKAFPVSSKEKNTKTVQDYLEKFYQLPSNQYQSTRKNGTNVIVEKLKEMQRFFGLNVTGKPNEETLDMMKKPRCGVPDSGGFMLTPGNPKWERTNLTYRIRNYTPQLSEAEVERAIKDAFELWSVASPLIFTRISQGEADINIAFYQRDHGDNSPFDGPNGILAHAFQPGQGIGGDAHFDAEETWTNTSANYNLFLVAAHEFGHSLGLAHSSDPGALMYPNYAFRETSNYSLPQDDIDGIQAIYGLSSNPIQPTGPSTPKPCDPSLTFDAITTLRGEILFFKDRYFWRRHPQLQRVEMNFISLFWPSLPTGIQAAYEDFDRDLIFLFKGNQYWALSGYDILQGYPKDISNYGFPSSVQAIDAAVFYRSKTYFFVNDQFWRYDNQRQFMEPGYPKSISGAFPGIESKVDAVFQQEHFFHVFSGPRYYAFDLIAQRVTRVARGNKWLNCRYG
Chain of Matrix metalloproteinase-9 (P14780 whole entry): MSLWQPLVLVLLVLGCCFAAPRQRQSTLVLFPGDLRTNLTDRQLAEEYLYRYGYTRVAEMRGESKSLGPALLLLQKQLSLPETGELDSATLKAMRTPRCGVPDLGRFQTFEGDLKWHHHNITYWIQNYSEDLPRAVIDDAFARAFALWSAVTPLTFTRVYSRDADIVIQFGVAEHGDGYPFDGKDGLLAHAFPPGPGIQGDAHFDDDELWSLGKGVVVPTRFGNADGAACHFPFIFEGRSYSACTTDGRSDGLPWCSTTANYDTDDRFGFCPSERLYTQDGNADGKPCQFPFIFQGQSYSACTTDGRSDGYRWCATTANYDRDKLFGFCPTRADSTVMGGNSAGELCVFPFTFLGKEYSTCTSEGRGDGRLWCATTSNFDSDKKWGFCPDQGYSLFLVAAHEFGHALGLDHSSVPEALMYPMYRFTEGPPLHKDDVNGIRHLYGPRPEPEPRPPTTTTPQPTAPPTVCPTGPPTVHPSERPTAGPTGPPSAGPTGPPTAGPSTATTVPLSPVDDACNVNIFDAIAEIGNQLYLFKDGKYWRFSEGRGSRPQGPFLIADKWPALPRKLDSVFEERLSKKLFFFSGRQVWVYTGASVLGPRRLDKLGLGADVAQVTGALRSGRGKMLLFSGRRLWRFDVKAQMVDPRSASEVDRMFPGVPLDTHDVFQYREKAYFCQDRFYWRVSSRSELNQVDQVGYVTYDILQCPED
Chain of Stromelysin-1 (P08254 whole entry): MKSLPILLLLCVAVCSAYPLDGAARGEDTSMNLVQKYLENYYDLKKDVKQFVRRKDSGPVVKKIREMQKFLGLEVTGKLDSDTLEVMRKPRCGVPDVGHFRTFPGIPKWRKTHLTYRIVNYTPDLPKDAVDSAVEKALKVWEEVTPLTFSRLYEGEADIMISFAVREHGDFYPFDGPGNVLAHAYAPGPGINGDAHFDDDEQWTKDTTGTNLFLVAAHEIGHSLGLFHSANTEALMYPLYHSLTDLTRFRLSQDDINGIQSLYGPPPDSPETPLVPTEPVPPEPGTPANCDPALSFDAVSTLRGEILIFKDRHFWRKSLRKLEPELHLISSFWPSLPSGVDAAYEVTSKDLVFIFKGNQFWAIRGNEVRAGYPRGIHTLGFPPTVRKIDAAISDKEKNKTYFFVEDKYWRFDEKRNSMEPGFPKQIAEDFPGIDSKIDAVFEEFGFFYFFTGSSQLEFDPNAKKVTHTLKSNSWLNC

Which IC50 [1] does the source give for `O=C(c1ccc(S(=O)(=O)CC(CCCc2ccccc2)C(=O)NO)cc1)c1cc[n+]([O-])cc1` (centres undefined) here?
The IC50 was 0.08 µM.

What about the IC50 [2] of the same compound?
The IC50 was 0.15 µM.

What about the IC50 [3] of the same compound?
The IC50 was 0.35 µM.

And the IC50 [4]?
The IC50 was 20 µM.

What about the IC50 [5] of the same compound?
Its IC50 is 0.05 µM.

With `O=C(NO)C(CCCc1ccccc1)CS(=O)(=O)c1ccc(C(O)c2ccccc2)cc1` (centres undefined) as the compound, how does the IC50 [1] read?
Its IC50 is 3 µM.

And the IC50 [2]?
Its IC50 is 2.5 µM.

What about the IC50 [3] of the same compound?
Its IC50 is 2.5 µM.

What about the IC50 [4] of the same compound?
Its IC50 is 25 µM.

What about the IC50 [5] of the same compound?
The IC50 was 1.7 µM.

Which results are given for `O=C(c1ccccc1)c1ccc(S(=O)(=O)CC(CCCc2ccccc2)C(=O)NO)cc1` (centres undefined)?
IC50 [1]: 0.015 µM; IC50 [3]: 0.1 µM; IC50 ([6]; Homo sapiens): > 100 µM; IC50 ([7]; Homo sapiens): > 100 µM; inhibition in vivo at 30 mg/kg [8]: 40%; inhibition in vivo at 10 mg/kg [9]: 40%; IC50 ([10]; Homo sapiens): > 100 µM; IC50 ([11]; Homo sapiens): > 100 µM; IC50 [12]: > 100 µM

Which IC50 [1] does the source give for `O=C(NO)C(CCCc1ccccc1)CS(=O)(=O)c1ccc(Cc2ccccc2)cc1` (centres undefined) here?
Its IC50 is 0.3 µM.

What about the IC50 [2] of the same compound?
Its IC50 is 0.15 µM.

And the IC50 [3]?
Its IC50 is greater than 2 µM.

What about the IC50 [4] of the same compound?
The IC50 was greater than 30 µM.

What about the IC50 [5] of the same compound?
Its IC50 is 0.2 µM.

With `O=C(c1ccccc1)c1ccc(S(=O)(=O)CC(CCCc2ccccc2)C(=O)O)cc1` (centres undefined) as the compound, how does the IC50 [1] read?
Its IC50 is 0.3 µM.

What about the IC50 [2] of the same compound?
The IC50 was 0.4 µM.

What about the IC50 [3] of the same compound?
The IC50 was 1.2 µM.

And the IC50 [4]?
Its IC50 is 20 µM.

And the IC50 [5]?
The IC50 was 0.8 µM.

For `Cl.O=C(c1ccncc1)c1ccc(S(=O)(=O)CC(CCCc2ccccc2)C(=O)NO)cc1` (centres undefined), which IC50 [1] is on record?
Its IC50 is 0.003 µM.

What about the IC50 [2] of the same compound?
Its IC50 is 0.015 µM.

What about the IC50 [3] of the same compound?
The IC50 was 0.1 µM.

And the IC50 ([6]; Homo sapiens)?
The IC50 was greater than 100 µM.

And the inhibition in vivo at 3 mg/kg [13]?
Its inhibition in vivo at 3 mg/kg is 50%.

What about the IC50 [4] of the same compound?
Its IC50 is 10 µM.

And the IC50 ([7]; Homo sapiens)?
Its IC50 is greater than 100 µM.

And the IC50 [5]?
Its IC50 is 0.003 µM.

And the inhibition in vivo at 30 mg/kg [8]?
The inhibition in vivo at 30 mg/kg was 80%.

And the Plasma level [14]?
Its Plasma level is 0.3 µg/mL.

And the IC50 ([10]; Homo sapiens)?
The IC50 was greater than 100 µM.

And the IC50 ([11]; Homo sapiens)?
Its IC50 is 37 µM.

And the IC50 [12]?
The IC50 was greater than 100 µM.

Which IC50 [15] does the source give for `CNC(=O)[C@@H](NC(=O)C(CC(C)C)C(O)C(=O)NO)C(C)(C)C` (single isomer, unassigned) here?
The IC50 was 5 µM.

What about the IC50 [6] of the same compound?
Its IC50 is 2 µM.

What about the IC50 [7] of the same compound?
Its IC50 is 10 µM.

What about the inhibition in vivo at 30 mg/kg [8] of the same compound?
Its inhibition in vivo at 30 mg/kg is 40%.

And the inhibition in vivo at 10 mg/kg [9]?
Its inhibition in vivo at 10 mg/kg is 50%.

And the IC50 [10]?
The IC50 was 1 µM.

And the IC50 [11]?
Its IC50 is 10 µM.
